Measured values taken from PubChem BioAssay (NCI).
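Here, GI50 denotes the concentration required for 50% inhibition of growth. TGI is the concentration that stops growth completely.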

What was measured:
Experiment in all cases: NCI anticancer screen, dose series, 384-well format
DU-145 prostate = system: DU-145 prostate
HCT-15 colon = system: HCT-15 colon
HOP-62 NSCLC = system: HOP-62 NSCLC
HOP-92 NSCLC = system: HOP-92 NSCLC
MALME-3M melanoma = system: MALME-3M melanoma
NCI-H522 lung = system: NCI-H522 lung
OVCAR-3 ovarian = system: OVCAR-3 ovarian
RXF 393 renal = system: RXF 393 renal
SK-OV-3 ovarian = system: SK-OV-3 ovarian
SNB-19 CNS = system: SNB-19 CNS
SW-620 colon = system: SW-620 colon
UACC-257 melanoma = system: UACC-257 melanoma

With NC(=O)[C@@H](CC1CC1)[C@@H](CCC(F)(F)F)C(=O)N[C@H]1N=C(c2ccccc2)c2cccc(F)c2NC1=O the GI50 (DU-145 prostate) was 23.7 µM, the TGI (DU-145 prostate) was 66.6 µM and the GI50 (HCT-15 colon) was > 65.9 µM. For the same compound, the TGI (HCT-15 colon) was > 100 µM, the GI50 (HOP-62 NSCLC) was 8.29 µM and the TGI (HOP-62 NSCLC) was 25 µM. The GI50 (HOP-92 NSCLC) was 15.5 µM, the TGI (HOP-92 NSCLC) was 29.6 µM and the GI50 (MALME-3M melanoma) was 14.8 µM. The TGI (MALME-3M melanoma) was 28.2 µM, the GI50 (NCI-H522 lung) was 15.2 µM and the TGI (NCI-H522 lung) was 30.5 µM. It also gave a GI50 (OVCAR-3 ovarian) of 14.4 µM, a TGI (OVCAR-3 ovarian) of 29 µM and a GI50 (RXF 393 renal) of 7.3 µM. It also gave a TGI (RXF 393 renal) of 22.6 µM, a GI50 (SK-OV-3 ovarian) of 14.9 µM and a TGI (SK-OV-3 ovarian) of 28.5 µM. The GI50 (SNB-19 CNS) was 14.7 µM, the TGI (SNB-19 CNS) was 28.9 µM and the GI50 (SW-620 colon) was 17.7 µM. The TGI (SW-620 colon) was 35.1 µM, the GI50 (UACC-257 melanoma) was 5.76 µM and the TGI (UACC-257 melanoma) was 24.6 µM.
